Source: patent US11464770B2, “Anticancer pharmaceutical composition” (NATIONAL CANCER CENTER, priority 2016, dated 2022)
pIC50: −log10 of the molar value. Read-outs that look alike come from different tables or passages of the source.

Experiments:
[1] = system: breast cancer cell lines (e.g. MDA-MB-231, SK-BR-3, MDA-MB-468, HCC1954); assay: Cell based assay, cell viability (CellTiter-Glo), breast cancer cell lines; details: 72 hours, CellTiter-Glo
Procedure, shortened: (§1)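 Read-out is ATP-dependent luminescence (CellTiter-Glo) taken after 72 h of exposure to compound at final concentrations from 0 to 2 μM. Cells were plated 24 h beforehand.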

liver cancer cell lines = assay: Cell based assay, cell viability (CellTiter-Glo), liver cancer cell lines; details: Homo sapiens, SK-HEP1; SK-HEP-1 cell line
Procedure, shortened: as §1

[2] = system: RT4: human urinary bladder transitional cell papilloma; assay: Cell based assay, cytotoxicity in RT4 papilloma cells (selectivity); details: Homo sapiens, RT-4; RT4 cells
[3] = Breast cancer cell line MDA-MB-231-L/DOX, read-out: IC50, MDA-MB-231-L/DOX
[4] = Homo sapiens, Breast cancer cell line BT-20, read-out: IC50, BT-20
[5] = Homo sapiens, Breast cancer cell line HCC1395, read-out: IC50, HCC1395
[6] = Homo sapiens, Breast cancer cell line HCC1954, read-out: IC50, HCC1954
[7] = Homo sapiens, Breast cancer cell line JIMT-1, read-out: IC50, JIMT-1
[8] = Homo sapiens, Breast cancer cell line MCF7, read-out: IC50, MCF7
[9] = Homo sapiens, Breast cancer cell line MDA-MB-231, read-out: IC50, MDA-MB-231
[10] = Homo sapiens, Breast cancer cell line MDA-MB-468, read-out: IC50, MDA-MB-468
[11] = Homo sapiens, Breast cancer cell line SK-BR-3, read-out: IC50, SK-BR-3

Row | Structure (SMILES) | pIC50 [1, 3] | pIC50 [1, 4] | pIC50 [1, 5] | pIC50 [1, 6] | pIC50 [1, 7] | pIC50 [1, 8] | pIC50 [1, 9] | pIC50 [1, 10] | pIC50 [1, 11] | pIC50 (liver cancer cell lines) | pIC50 [2]
1 | CC(=O)c1c([S+]([O-])Cc2ccc(F)cc2F)[nH]c2c(Br)ccc(Cl)c2c1=O (centres unmarked) [Compound 29, 3-acetyl-8-bromo-5-chloro-2-((2,4-difluorobenzyl)sulfinyl)quinolin-4(1H)-one] | < 5.70 | < 5.70 | < 5.00 | < 5.70 | < 5.00 | < 5.70 | < 5.70 | < 5.70 | 6.07 | 5.99 | < 5.00
2 | CC(=O)c1c([S+]([O-])Cc2ccc([N+](=O)[O-])cc2)[nH]c2c(Br)ccc(Cl)c2c1=O (centres unmarked) [Compound 33, 3-acetyl-8-bromo-5-chloro-2-((4-nitrobenzyl)sulfinyl)quinolin-4(1H)-one] | < 5.70 | < 5.70 | < 5.00 | < 5.70 | < 5.00 | < 5.70 | < 5.70 | < 5.70 | 6.00 | 5.97 | < 5.00
3 | CC(=O)c1c(S(=O)(=O)Cc2ccccc2)[nH]c2c(Br)ccc(Cl)c2c1=O [Compound 34, 3-acetyl-2-(benzylsulfonyl)-8-bromo-5-chloroquinolin-4(1H)-one] | < 5.70 | < 5.70 | < 5.00 | < 5.70 | < 5.00 | < 5.70 | < 5.70 | < 5.70 | 5.90 | 5.76 | < 5.00
4 | CC(=O)c1c([S+]([O-])Cc2cc(Cl)ccc2Cl)[nH]c2c(Br)ccc(Cl)c2c1=O (centres unmarked) [Compound 44, 3-acetyl-8-bromo-5-chloro-2-((2,5-dichlorobenzyl)sulfinyl)quinolin-4(1H)-one] | < 5.70 | < 5.70 | < 5.00 | < 5.70 | < 5.00 | < 5.70 | < 5.70 | < 5.70 | 5.97 | 6.03 | < 5.00
5 | CC(=O)c1c([S+]([O-])Cc2cc(F)cc(F)c2)[nH]c2c(Br)ccc(Cl)c2c1=O (centres unmarked) [Compound 46, 3-acetyl-8-bromo-5-chloro-2-((3,5-difluorobenzyl)sulfinyl)quinolin-4(1H)-one] | < 5.70 | < 5.70 | < 5.00 | < 5.70 | < 5.00 | < 5.70 | < 5.70 | < 5.70 | 5.94 | 5.88 | < 5.00
6 | CC(=O)c1c([S+]([O-])Cc2cc(C)on2)[nH]c2c(Br)ccc(Cl)c2c1=O (centres unmarked) [Compound 51, 3-acetyl-8-bromo-5-chloro-2-(((5-methylisoxazol-3-yl)methyl)sulfinyl)quinolin-4(1H)-one] | < 5.70 | < 5.70 | < 5.00 | < 5.70 | < 5.00 | < 5.70 | 5.81 | < 5.70 | 6.27 | 5.88 | < 5.00
7 | COc1cccc(C[S+]([O-])c2[nH]c3c(Br)ccc(Cl)c3c(=O)c2C(C)=O)c1 (centres unmarked) [Compound 55, 3-acetyl-8-bromo-5-chloro-2-((3-methoxybenzyl)sulfinyl)quinolin-4(1H)-one] | < 5.70 | < 5.70 | < 5.00 | < 5.70 | < 5.00 | < 5.70 | < 5.70 | < 5.70 | 5.96 | 5.84 | < 5.00
8 | CC(=O)c1c([S+]([O-])Cc2ccc([N+](=O)[O-])cc2)[nH]c2c(Cl)ccc(Cl)c2c1=O (centres unmarked) [Compound 57, 3-acetyl-5,8-dichloro-2-((4-nitrobenzyl)sulfinyl)quinolin-4(1H)-one] | < 5.70 | < 5.70 | < 5.00 | < 5.70 | < 5.00 | < 5.70 | < 5.70 | < 5.70 | 5.87 | < 5.70 | < 5.00
9 | COc1cc(C[S+]([O-])c2[nH]c3c(Br)ccc(Cl)c3c(=O)c2C(C)=O)cc(OC)c1 (centres unmarked) [Compound 59, 3-acetyl-8-bromo-5-chloro-2-((3,5-dimethoxybenzyl)sulfinyl)quinolin-4(1H)-one] | < 5.70 | < 5.70 | < 5.00 | < 5.70 | < 5.00 | < 5.70 | < 5.70 | < 5.70 | 5.97 | 6.04 | < 5.00
10 | CC(=O)c1c([S+]([O-])Cc2c(F)c(F)c(F)c(F)c2F)[nH]c2c(Br)ccc(Cl)c2c1=O (centres unmarked) [Compound 78, 3-acetyl-8-bromo-5-chloro-2-(((perfluorophenyl)methyl)sulfinyl)quinolin-4(1H)-one] | < 5.70 | < 5.70 | < 5.00 | < 5.70 | < 5.00 | < 5.70 | < 5.70 | < 5.70 | 5.92 |  | < 5.00

Continued, in another order:

Row | pIC50 [1, 3] | pIC50 [1, 4] | pIC50 [1, 5] | pIC50 [1, 6] | pIC50 [1, 7] | pIC50 [1, 8] | pIC50 [1, 9] | pIC50 [1, 10] | pIC50 [1, 11] | pIC50 (liver cancer cell lines) | Structure (SMILES) | pIC50 [2]
11 | < 5.70 | < 5.70 | < 5.00 | < 5.70 | < 5.00 | < 5.70 | 5.88 | < 5.70 | 6.02 |  | CC(=O)c1c([S+]([O-])Cc2ccc(F)c(Cl)c2)[nH]c2c(Br)ccc(Cl)c2c1=O (centres unmarked) [Compound 31, 3-acetyl-8-bromo-5-chloro-2-((3-chloro-4-fluorobenzyl)sulfinyl)quinolin-4(1H)-one] | < 5.00
12 | < 5.70 | < 5.70 | < 5.00 | < 5.70 | < 5.00 | < 5.70 | < 5.70 | < 5.70 | 6.00 | 5.87 | CC(=O)c1c([S+]([O-])Cc2cccc(F)c2)[nH]c2c(Br)ccc(Cl)c2c1=O (centres unmarked) [Compound 50, 3-acetyl-8-bromo-5-chloro-2-((3-fluorobenzyl)sulfinyl)quinolin-4(1H)-one] | < 5.00
13 | < 5.70 | < 5.70 | < 5.00 | 5.83 | < 5.00 | < 5.70 | 5.84 | 5.79 | 5.86 | 5.99 | CC(=O)c1c([S+]([O-])Cc2ccc(SC(F)(F)F)cc2)[nH]c2c(Br)ccc(Cl)c2c1=O (centres unmarked) [Compound 56, 3-acetyl-8-bromo-5-chloro-2-((4-((trifluoromethyl)thio)benzyl)sulfinyl)quinolin-4(1H)-one] | < 5.00
14 | < 5.70 | < 5.70 | < 5.00 | < 5.70 | < 5.00 | < 5.70 | < 5.70 | < 5.70 | 5.73 | < 5.70 | CC(=O)c1c([S+]([O-])Cc2ccc(C(C)(C)C)cc2)[nH]c2c(Br)ccc(Cl)c2c1=O (centres unmarked) [Compound 60, 3-acetyl-8-bromo-2-((4-(tert-butyl)benzyl)sulfinyl)-5-chloroquinolin-4(1H)-one] | < 5.00
15 | < 5.70 | < 5.70 | < 5.00 | < 5.70 | < 5.00 | < 5.70 | < 5.70 | < 5.70 | 5.99 | 6.06 | CC(=O)c1c([S+]([O-])Cc2ccc([S+]([O-])C(F)(F)F)cc2)[nH]c2c(Br)ccc(Cl)c2c1=O (centres unmarked) [Compound 64, 3-acetyl-8-bromo-5-chloro-2-((4-((trifluoromethyl)sulfinyl)benzyl)sulfinyl)quinolin-4(1H)-one] | < 5.00
16 | < 5.70 | < 5.70 | < 5.00 | < 5.70 | < 5.00 | < 5.70 | < 5.70 | < 5.70 | 5.92 | 5.99 | CC(=O)c1c([S+]([O-])Cc2ccc(C(F)(F)F)cc2)[nH]c2c(Br)ccc(Cl)c2c1=O (centres unmarked) [Compound 70, 3-acetyl-8-bromo-5-chloro-2-((4-(trifluoromethyl)benzyl)sulfinyl)quinolin-4(1H)-one] | < 5.00
17 | < 5.70 | < 5.70 | < 5.00 | < 5.70 | < 5.00 | < 5.70 | < 5.70 | < 5.70 | 5.81 | 5.93 | CC(=O)c1c([S+]([O-])Cc2ccc(OC(F)(F)F)cc2)[nH]c2c(Br)ccc(Cl)c2c1=O (centres unmarked) [Compound 71, 3-acetyl-8-bromo-5-chloro-2-((4-(trifluoromethoxy)benzyl)sulfinyl)quinolin-4(1H)-one] | < 5.00
